Data on 25 molecules can be found in paper PMC7956625, “Optimization and Anti-Cancer Properties of Fluoromethylketones as Covalent Inhibitors for Ubiquitin C-Terminal Hydrolase L1” (Molecules, 2021).

Series [1] has as its target T1, UCHL1 (Homo sapiens, UniProt P09936).
T1 sequence (P09936 1-223): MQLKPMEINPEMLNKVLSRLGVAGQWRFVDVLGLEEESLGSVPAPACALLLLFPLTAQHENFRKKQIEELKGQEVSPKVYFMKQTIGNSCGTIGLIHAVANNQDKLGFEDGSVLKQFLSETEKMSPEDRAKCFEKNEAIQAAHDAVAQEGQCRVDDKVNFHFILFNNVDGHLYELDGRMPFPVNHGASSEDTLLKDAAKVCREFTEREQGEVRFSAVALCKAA
The experiment in a line: Fluorescence-based Ub-Rho deubiquitinase activity assay. The series is classed as biochemical. The arrangement: made in house. The following applies: for IC50: 3 h of preincubation with UCHL1, technical triplicate, averages, read-out: IC50; for in vitro activity against UCHL1: up to 200 µM. How it is done: Thus, a 3-h preincubation period was selected for the structure-activity relationship (SAR) comparison of all analogs to ensure full reaction time and for consistent comparison of activity against UCHL1 within the scaffold. […] A 10 mM stock solution was made for each inhibitor in DMSO, then a dilution of 600 µM in reaction buffer was made followed eight by 1:1 serial dilutions. […] These were allowed to incubate, while sealed, for the 3 h at room temperature. […] The % activity was plotted as a function of inhibitor concentration and the data was fitted with non-linear regression analysis to calculate the IC50 values. Errors are reported as the 95% confidence interval calculated from experiments collected in technical triplicate.

The nature of series [2]: SW1271 cell viability assay. The format is cell-based. The following applies: human, SW1271 small cell lung cancer cells (luciferase-constructed), SW1271 cells. The method, then: UCHL1 is a key promoter of cell invasion and metastasis in small cell lung cancer but not necessarily required for cell viability or proliferation. Thus, we chose to assess the efficacy of targeting UCHL1 using the SW1271 small cell lung cancer cell line. […] The Ub-ABP assay was used to confirm on target engagement of UCHL1 within these cells.
Luciferase-constructed cancer cells were seeded in 96-well plates at 10,000 cells/well with the compounds at the indicated concentrations. DMSO was used as vehicle control. Luminescence readings were acquired after adding 1% D-luciferin (GoldBio, St. Louis, MO, USA) after 24 h. Cell viability was determined by the ratio of luminescence reading compared to the one at 0 h, and normalized to vehicle control.

Series [3] relates to SW1271 cells. The experiment in a line: Click reaction and in-gel fluorescence of treated SW1271 cells. The series is classed as cell-based. The following applies: 100 µM, 4 h. The method, then: Leveraging the alkyne handle, a click reaction was performed with an azide containing sulfo-cyanine5 fluorophore (Cy5) to visualize proteins within the cells that were conjugated to either the fluoromethylketone 34 or the chloromethylketone 37. Cells were pretreated with either analog then harvested and washed to removed unreacted inhibitor. The cells were then lysed and the click reaction was performed on lysates. […] Further evaluation using proteomic profiling is warranted to gain a quantitative understanding on the potential for non-specificity at off-target cysteines.
Cells were treated with 100 µM inhibitor or DMSO for 4 h before being washed, scraped, and lysed in 200 µL of lysis buffer (1× PBS, 1% v/v Triton X-100, 0.1% w/v SDS, 1X HALT) for 30 min on ice with vigorous vortexing every 10 min. Samples were then pelleted at 17,000× g for 10 min before collecting the supernatant and measuring concentration using BCA. Samples were normalized to 2 mg/mL and stored at −80 °C overnight. The following day, samples were thawed. While thawing, a click cocktail was prepared (for each sample, the cocktail consists of: 3 µL of 1.7 mM THPTA in 1:4 tBuOH/DMSO, 1 µL of 50 mM CuSO4 in water, 1 µL of 1.25 mM Cy5-N3 in DMSO, and 1 µL of 50 mM TCEP in water freshly prepared). […] The samples were then analyzed by SDS-PAGE and imaged on a Licor Odyssey and subsequently Coomassie stained.

In series [4] the target is T1, UCHL1. The arrangement: made in house. The conditions noted are these: previous studies; cited from earlier work.
Series [5] addresses T1, UCHL1. The experiment in a line: Fluorescence-based Ub-Rho deubiquitinase activity assay. The series is classed as biochemical. The arrangement: made in house. The following applies: even after 6 h of incubation with the enzyme.
Series [6] has as its target T1, UCHL1. Nature of the series: Time-dependent inhibitor analysis (kinact/KI). The format is biochemical. Set-up: made in house. The method, then:
Irreversible covalent inhibitors may be further characterized by determining the reversible binding constant (KI) as well as the rate of the covalent bond formation under saturating conditions (kinact). By determining the IC50 over the course of various timepoints, the pseudo first-order rate constant (kobs) could be calculated. […] The % activity of each inhibitor concentration was the plotted vs. time of pre-incubation and the slope of this plot is the pseudo first-order rate constant (kobs) for inhibition at each concentration. The kobs was plotted as a function of inhibitor concentration and then fit to the equation Y = kinactX/(KI + X) to calculate kinact, KI and kinact/KI as described by Resnick et al..

For series [7], the system named is KMS-12 cell lines. The arrangement: method as in PMID 31449350. The conditions noted are these: cells do not express UCHL1; cited from earlier work.
[8] abbreviates: IC50 comparison, 3 h preincubation.

Where a SMILES comes first, the peptide text is derived from it. [ ]: non-standard residue; d: D form. The star is where a group is joined. Cbz = O=C(OCc1ccccc1)*; CH2Cl = ClC*; CH2F = FC*

Take `COC(=O)CC[C@H](NC(=O)[C@H](C)NC(=O)[C@H](CC(C)C)NC(=O)OCc1ccccc1)C(=O)CF` [Cpd 20] (Cbz-Leu-Ala-Glu(OMe)-CH2F): the IC50 in series [1] was 23 µM.

With `C#Cc1ccc(COC(=O)N[C@H](C(=O)NCC(=O)N[C@@H](CCC(=O)OC)C(=O)CF)C(C)C)cc1` [Cpd 35], the IC50 in series [1] amounted to 62 µM. The “fold more active than non-alkyne analog 15” value in series [1] (setting [8]) is given as “about 1.5 fold”.

`COC(=O)CC[C@H](NC(=O)[C@@H](NC(=O)[C@@H](NC(=O)OCc1ccccc1)C(C)C)[C@@H](C)O)C(=O)CF` [Cpd 30] (Cbz-Val-Thr-Glu(OMe)-CH2F): the IC50 in series [1] is over 200 µM.

For the molecule `COC(=O)CC[C@H](NC(=O)[C@H](CC(=O)O)NC(=O)[C@@H](NC(=O)OCc1ccccc1)C(C)C)C(=O)CF` [Cpd 32] (Cbz-Val-Asp-Glu(OMe)-CH2F), in series [1], the IC50 is over 200 µM. As to `C#Cc1ccc(COC(=O)N[C@H](C(=O)N[C@@H](C)C(=O)N[C@@H](CCC(=O)OC)C(=O)CCl)C(C)C)cc1` [Cpd 37], the CC50 at 24 h in series [2] amounted to 0.176 µM. Also, the “proteins labelled in SW1271 cells (Cy5 click, in-gel fluorescence)” value in series [3] was “non-specifically label multiple proteins within the cell”. Besides, in series [1], the IC50 is over 200 µM and the “in vitro activity against UCHL1” value was “inactive”. As to `COC(=O)CC[C@H](NC(=O)[C@H](C)NC(=O)[C@@H](NC(=O)OCc1ccccc1)[C@@H](C)O)C(=O)CF` [Cpd 23] (Cbz-Thr-Ala-Glu(OMe)-CH2F), the IC50 in series [1] came to 100 µM. As to `COC(=O)C[C@H](NC(=O)[C@H](C)NC(=O)[C@@H](NC(=O)OCc1ccccc1)C(C)C)C(=O)CF` [VADFMK] (Cbz-Val-Ala-Asp(OMe)-CH2F), the “activity against UCHL1” value in series [4] was “inactive”. With `CC(C)[C@H](NC(=O)OCc1ccccc1)C(=O)NCC(=O)N[C@@H](CCC(=O)O)C(=O)CF` [Cpd 16] (Cbz-Val-Gly-Glu-CH2F), the IC50 in series [1] is over 200 µM. In addition, in series [5], the “in vitro activity against UCHL1” value is on record as “complete abrogation of activity”. For the molecule `COC(=O)CC[C@H](NC(=O)[C@H](C)NC(=O)CNC(=O)OCc1ccccc1)C(=O)CF` [Cpd 18] (Cbz-Gly-Ala-Glu(OMe)-CH2F), in series [1], the IC50 is over 200 µM and the “in vitro activity against UCHL1” value is on record as “complete abrogation of activity”. For `COC(=O)CC[C@H](NC(=O)[C@H](C)NC(=O)[C@H](NC(=O)OCc1ccccc1)C(C)C)C(=O)CF` [Cpd 17] (Cbz-[dV]-Ala-Glu(OMe)-CH2F), in series [1], the IC50 is over 200 µM and the “in vitro activity against UCHL1” value was “complete loss of activity”.

As for `COC(=O)CC[C@H](NC(=O)[C@H](Cc1ccccc1)NC(=O)[C@@H](NC(=O)OCc1ccccc1)C(C)C)C(=O)CF` [Cpd 28] (Cbz-Val-Phe-Glu(OMe)-CH2F), the IC50 in series [1] is over 200 µM. In the case of `COC(=O)CC[C@H](NC(=O)[C@H](CO)NC(=O)[C@@H](NC(=O)OCc1ccccc1)C(C)C)C(=O)CF` [Cpd 29] (Cbz-Val-Ser-Glu(OMe)-CH2F), the IC50 in series [1] amounted to 100 µM. For the molecule `C#Cc1ccc(COC(=O)N[C@@H](Cc2ccccc2)C(=O)N[C@@H](C)C(=O)N[C@@H](CCC(=O)OC)C(=O)CF)cc1` [Cpd 36], in series [1], the 50% inhibitory concentration (IC50) is 11 µM. Also, the “fold more active than 1 versus UCHL1” value in series [1] (setting [8]) is recorded as 2 fold. Moreover, in series [6] (Table 3 and text, read-out: kinact/KI), the kinact/KI is 208 M⁻¹ s⁻¹. In addition, in series [6] (read-out: kinact), the kinact is 0.0157 s⁻¹. Moreover, the Ki in series [6] (reversible binding constant of covalent inhibition, read-out: KI) is 75.3 µM. Consider `COC(=O)CC[C@H](NC(=O)[C@H](C)NC(=O)[C@H](CC(N)=O)NC(=O)OCc1ccccc1)C(=O)CF` [Cpd 24] (Cbz-Asn-Ala-Glu(OMe)-CH2F), for which, in series [1], the IC50 stood at 119 µM. Turning to `N#CN1CCC[C@H]1C(=O)N1CCc2c(-c3cn[nH]c3C(F)(F)F)cccc21` [MT-19], in series [7], the “anti-proliferative properties in KMS-12 cell lines” value is reported as “anti-proliferative properties”. With `COC(=O)CC[C@H](NC(=O)[C@H](CCC(=O)O)NC(=O)[C@@H](NC(=O)OCc1ccccc1)C(C)C)C(=O)CF` [Cpd 33] (Cbz-Val-Glu-Glu(OMe)-CH2F), the concentration for half-maximal inhibition (IC50) in series [1] is over 200 µM. For the molecule `COC(=O)CC[C@H](NC(=O)[C@H](C)NC(=O)[C@H](C)NC(=O)OCc1ccccc1)C(=O)CF` [Cpd 19] (Cbz-Ala-Ala-Glu(OMe)-CH2F), the IC50 in series [1] worked out at 76 µM. Further, the “fold less effective than parent compound 1” value in series [1] (setting [8]) was 3 fold. Consider `COC(=O)CC[C@H](NC(=O)[C@H](C)NC(=O)[C@H](Cc1ccccc1)NC(=O)OCc1ccccc1)C(=O)CF` [Cpd 21, Cbz-L-Phe-L-Ala-L-Glu(OMe)-fluoromethylketone] (Cbz-Phe-Ala-Glu(OMe)-CH2F), for which, in series [1], the IC50 was found to be 13 µM. Take `COC(=O)CC[C@H](NC(=O)[C@H](CC(C)C)NC(=O)[C@@H](NC(=O)OCc1ccccc1)C(C)C)C(=O)CF` [Cpd 27] (Cbz-Val-Leu-Glu(OMe)-CH2F): the IC50 in series [1] is over 200 µM. Consider `COC(=O)CC[C@H](NC(=O)[C@H](CC(N)=O)NC(=O)[C@@H](NC(=O)OCc1ccccc1)C(C)C)C(=O)CF` [Cpd 31] (Cbz-Val-Asn-Glu(OMe)-CH2F), for which the IC50 in series [1] is over 200 µM.

For `COC(=O)CC[C@H](NC(=O)CNC(=O)[C@@H](NC(=O)OCc1ccccc1)C(C)C)C(=O)CF` [Cpd 15] (Cbz-Val-Gly-Glu(OMe)-CH2F), in series [1], the IC50 was 95 µM. Same read-out and setting: then `COC(=O)CC[C@H](NC(=O)[C@H](C)NC(=O)[C@H](CC(=O)O)NC(=O)OCc1ccccc1)C(=O)CF` [Cpd 25] (Cbz-Asp-Ala-Glu(OMe)-CH2F), with over 200 µM; and `COC(=O)CC[C@H](NC(=O)[C@H](C)NC(=O)[C@H](CO)NC(=O)OCc1ccccc1)C(=O)CF` [Cpd 22] (Cbz-Ser-Ala-Glu(OMe)-CH2F), with 185 µM. As to `COC(=O)CC[C@H](NC(=O)[C@@H](C)NC(=O)[C@@H](NC(=O)OCc1ccccc1)C(C)C)C(=O)CF` [Cpd 26] (Cbz-Val-[dA]-Glu(OMe)-CH2F), in series [1], the IC50 was over 200 µM and the “in vitro activity against UCHL1” value was “loss of activity”. In turn, `COC(=O)CC[C@H](NC(=O)[C@H](C)NC(=O)[C@@H](NC(=O)OCc1ccccc1)C(C)C)C(=O)CCl` [Cpd 14] (Cbz-Val-Ala-Glu(OMe)-CH2Cl) displayed a 50% cytotoxic concentration (CC50) at 24 h in series [2] of 0.156 µM. In addition, in series [1], the IC50 is over 200 µM and the “in vitro activity against UCHL1” value is “complete loss of in vitro activity”.
